Where “and” joins values, the source holds several entries; their conditions need not be identical. Identical values can stand only once.
Tested on: GRα mRNA levels in PBMC
Assay: Fold change ratio of GRα mRNA levels in PBMC of VKH patients after two weeks of prednisone (GC) treatment, RT-qPCR
Type: in vivo, human
Conditions: for Fold change ratio of GR levels in PBMC: after two weeks of Prednisone treatment vs baseline, oral 1 mg/Kg/day, 1 mg/kg/day; for GRα mRNA fold change median / GRα mRNA fold change range: two weeks of systemic GC therapy vs baseline
Protocol: 1) Obtainment of a 10-100 ml blood sample—preferably collected in the morning by automatic aspiration (vacutainer®) or manual (disposable syringe) methods. As an alternative or complementarily, the affected tissue or cell type may be completely or partially removed in order to carry out measurements.
2) After obtaining the sample, peripheral mononuclear cells (PBMC) are procured by the Ficoll gradient method, where a hydrophilic polysaccharide allows separating blood components into plasma, PBMC and erythrocytes. Alternatively or complementarily, the isolation of specific cell sub-types, such as CD4+, CD14+, CD8+cells, among others, may be conducted using a strategy based on magnetic microbeads or cell sorting by flow cytometry.
3) Subsequently, total RNA is extracted (Life Technologies, Inc.) by the TRIZOL method. For the obtainment of cDNA, 0.5 to 2 μg RNA is used as a template. Reverse transcription is performed preferably with kit ImProm-II™ Reverse Transcription System (Promega): a reaction mixture is prepared with 0.5 to 2 μg RNA, 1 μL Random Hexamers, 4 μL 5× ImProm-II™ RT buffer up to a final 20 μL volume, which is then incubated at 70° C. for 5 minutes, 4° C. for 5 minutes, 25° C. for 5 minutes, 42° C. for 60 minutes and 25° C. for 5 minutes.
4) cDNA is amplified using primers specific for GRα isoform: 5′-[…]-3′ (sense, SEQ ID NO: 1) and 5′-[…]-3′ (antisense, SEQ ID NO: 2) that correspond to nucleotides 2158-2178 and 2616-2635 of GRα cDNA.
5) For the amplification, a cDNA polymerase is used, preferably, the enzyme Go Taq® Flexi DNA Polymerase (Promega), starting the reaction with an initial 5 minute incubation at 95° C., followed then by 30 cycles as detailed: 95° C. for 30 seconds, 60° C. for 30 seconds and 72° C. for 30 seconds. For quantification by Real-Time qPCR a fluorophore is used, using preferably SYBR Green as fluorophore. GR measurements are made in duplicate. Finally, the results are standardized according to the expression of 18s rDNA gene that codes for the 18s ribosomal subunit.
6) Repetition of GRα mRNA level assessment according to the described protocol is carried out two weeks after initiating GC treatment. An increase is observed in GRα expression in sensitive patients and a reduction of the same in resistant patients (median of 5.5 versus 0.7, respectively).
7) Calculation of fold change ratio in GRα mRNA levels between the initial assessment and a later assessment after 2 weeks of GC treatment. GR fold change ratio=GR mRNA-2 weeks/GR mRNA at baseline
The method described in the present invention has been assessed in a group of 21 patients with Vogt-Koyanagi-Harada (VKH) disease, a specific uveitis subtype.
Cases: 13 patients affected by VKH with an inadequate response to oral treatment with 1 mg/Kg/day prednisone, in two separate doses, ⅔ of the daily dose in the morning and ⅓ of the dose in the afternoon.
Controls: 8 patients affected by VKH with an adequate response to the oral treatment with 1 mg/Kg/day prednisone, in two separate doses, ⅔ of the daily dose in the morning and ⅓ of the dose in the afternoon.
An analysis was conducted on the fold change ratio of GR transcript expression two weeks after treatment initiation, in comparison with baseline levels (prior to treatment initiation), segregating in accordance with the clinical response during follow-up. To calculate this fold change ratio, an arithmetic operation is conducted, that consists in dividing the GR levels obtained two weeks after the treatment and the baseline or initial GR levels. GR fold change ratio=GR mRNA-2 weeks/GR mRNA at baseline

[1] = patients clinically sensitive to GC

Q: How did the “Fold change ratio of GR levels in PBMC” value (individual patients with Vogt-Koyanagi-Harada disease clinically Resistant to GC) turn out when `C[C@]12C=CC(=O)C=C1CC[C@@H]1[C@@H]2C(=O)C[C@@]2(C)[C@H]1CC[C@]2(O)C(=O)CO` [Prednisone, prednisone] was run?
A: 0.667 and 0.225 and 0.243 and 0.841 and 0.759

Q: What about the “Fold change ratio of GR levels in PBMC” value (individual patients with Vogt-Koyanagi-Harada disease clinically Sensitive to GC) of the same compound?
A: 5.21 and 8.49 and 2.53 and 0.237 and 17.8 and 15 and 5.52

Q: What about the “GRα mRNA fold change median” value [1] of the same compound?
A: 5.5

Q: What about the “GRα mRNA fold change range” value [1] of the same compound?
A: 0.23-17.8

Q: And the “GRα mRNA fold change median” value (patients resistant to GC)?
A: 0.7

Q: What about the “GRα mRNA fold change range” value (patients resistant to GC) of the same compound?
A: 0.22-0.84

— patent US10683546B2, “Kit for predicting treatment with glucocorticoids and method comprising the same” (UNIVERSIDAD DE CHILE, priority 2015, dated 2020)
